Measured values as given in PubChem BioAssay (NCI).
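In this assay, cells in 96-well plates receive the compound at five concentrations for 48 hours. Endpoints are linearly interpolated between the surrounding concentrations. TGI: total growth inhibition.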

Assays:
Assay in all cases: NCI anticancer screen, dose series, 48 h
SR leukemia = test system: SR leukemia
MALME-3M melanoma = test system: MALME-3M melanoma
COLO 205 colon = test system: COLO 205 colon
RPMI-8226 leukemia = test system: RPMI-8226 leukemia
HS 578T breast = test system: HS 578T breast
MDA-MB-435 = test system: MDA-MB-435
HT29 colon = test system: HT29 colon
SK-MEL-28 melanoma = test system: SK-MEL-28 melanoma
SK-MEL-2 melanoma = test system: SK-MEL-2 melanoma
HCC-2998 colon = test system: HCC-2998 colon
M14 melanoma = test system: M14 melanoma
NCI-H522 lung = test system: NCI-H522 lung
T-47D breast = test system: T-47D breast
DU-145 prostate = test system: DU-145 prostate
NCI/ADR-RES ovarian = test system: NCI/ADR-RES ovarian
MCF7 breast = test system: MCF7 breast
OVCAR-8 ovarian = test system: OVCAR-8 ovarian
TK-10 renal = test system: TK-10 renal
RXF 393 renal = test system: RXF 393 renal
IGROV1 ovarian = test system: IGROV1 ovarian
OVCAR-5 ovarian = test system: OVCAR-5 ovarian
K-562 leukemia = test system: K-562 leukemia
CCRF-CEM leukemia = test system: CCRF-CEM leukemia
NCI-H460 lung = test system: NCI-H460 lung
UACC-62 melanoma = test system: UACC-62 melanoma
SK-OV-3 ovarian = test system: SK-OV-3 ovarian
OVCAR-4 ovarian = test system: OVCAR-4 ovarian
NCI-H226 lung = test system: NCI-H226 lung
OVCAR-3 ovarian = test system: OVCAR-3 ovarian
PC-3 prostate = test system: PC-3 prostate
MDA-N = test system: MDA-N
MDA-MB-231 breast = test system: MDA-MB-231 breast
SF-268 CNS = test system: SF-268 CNS
HCT-15 colon = test system: HCT-15 colon
HOP-92 NSCLC = test system: HOP-92 NSCLC
UO-31 renal = test system: UO-31 renal
SN12C renal = test system: SN12C renal
SW-620 colon = test system: SW-620 colon
SF-295 CNS = test system: SF-295 CNS
SNB-75 CNS = test system: SNB-75 CNS
HOP-62 NSCLC = test system: HOP-62 NSCLC
KM12 colon = test system: KM12 colon
SF-539 CNS = test system: SF-539 CNS
A498 renal = test system: A498 renal
LOX IMVI melanoma = test system: LOX IMVI melanoma
HCT-116 colon = test system: HCT-116 colon
CAKI-1 renal = test system: CAKI-1 renal
ACHN renal = test system: ACHN renal
EKVX NSCLC = test system: EKVX NSCLC
HL-60(TB) leukemia = test system: HL-60(TB) leukemia
A549 NSCLC = test system: A549 NSCLC
NCI-H23 lung = test system: NCI-H23 lung
786-0 renal = test system: 786-0 renal
MOLT-4 leukemia = test system: MOLT-4 leukemia
SK-MEL-5 melanoma = test system: SK-MEL-5 melanoma
U251 CNS = test system: U251 CNS
BT-549 breast = test system: BT-549 breast
SNB-19 CNS = test system: SNB-19 CNS
UACC-257 melanoma = test system: UACC-257 melanoma

With CN(C)CCNc1ccc(CO)c2oc3ccc(O)cc3c(=O)c12 the TGI (SR leukemia) was 4.36 µM, the TGI (MALME-3M melanoma) was 26.6 µM and the TGI (COLO 205 colon) was 21.6 µM. For the same compound, the TGI (RPMI-8226 leukemia) was 51.1 µM, the TGI (HS 578T breast) was 33.4 µM and the TGI (MDA-MB-435) was 27.1 µM. It also gave a TGI (HT29 colon) of 44.9 µM, a TGI (SK-MEL-28 melanoma) of 32 µM and a TGI (SK-MEL-2 melanoma) of 30.7 µM. It also gave a TGI (HCC-2998 colon) of 27.9 µM, a TGI (M14 melanoma) of 29.5 µM and a TGI (NCI-H522 lung) of 17.1 µM. It also gave a TGI (T-47D breast) of 59.4 µM, a TGI (DU-145 prostate) of 53.9 µM and a TGI (NCI/ADR-RES ovarian) of 74.3 µM. For the same compound, the TGI (MCF7 breast) was 58.1 µM, the TGI (OVCAR-8 ovarian) was 14.4 µM and the TGI (TK-10 renal) was 69 µM. The TGI (RXF 393 renal) was 28.4 µM, the TGI (IGROV1 ovarian) was 57.2 µM and the TGI (OVCAR-5 ovarian) was 38 µM. The TGI (K-562 leukemia) was 32.4 µM, the TGI (CCRF-CEM leukemia) was 34.1 µM and the TGI (NCI-H460 lung) was 17.4 µM. For the same compound, the TGI (UACC-62 melanoma) was 25 µM, the TGI (SK-OV-3 ovarian) was 37.4 µM and the TGI (OVCAR-4 ovarian) was 28.7 µM. It also gave a TGI (NCI-H226 lung) of 47.7 µM, a TGI (OVCAR-3 ovarian) of 42.1 µM and a TGI (PC-3 prostate) of 29.3 µM. For the same compound, the TGI (MDA-N) was 25.7 µM, the TGI (MDA-MB-231 breast) was 37.7 µM and the TGI (SF-268 CNS) was 42.2 µM. The TGI (HCT-15 colon) was 29.9 µM, the TGI (HOP-92 NSCLC) was 33.4 µM and the TGI (UO-31 renal) was 31.3 µM. The TGI (SN12C renal) was greater than 66.3 µM, the TGI (SW-620 colon) was 61.3 µM and the TGI (SF-295 CNS) was 41.5 µM. It also gave a TGI (SNB-75 CNS) of 47.1 µM, a TGI (HOP-62 NSCLC) of 27.3 µM and a TGI (KM12 colon) of 40 µM. It also gave a TGI (SF-539 CNS) of 25.1 µM, a TGI (A498 renal) of 28.3 µM and a TGI (LOX IMVI melanoma) of 27 µM. It also gave a TGI (HCT-116 colon) of 52.2 µM, a TGI (CAKI-1 renal) greater than 100 µM and a TGI (ACHN renal) of 44 µM. The TGI (EKVX NSCLC) was 47.5 µM, the TGI (HL-60(TB) leukemia) was 30.9 µM and the TGI (A549 NSCLC) was 63.9 µM. For the same compound, the TGI (NCI-H23 lung) was 24.6 µM, the TGI (786-0 renal) was 46.1 µM and the TGI (MOLT-4 leukemia) was 14.3 µM. The TGI (SK-MEL-5 melanoma) was 27.9 µM, the TGI (U251 CNS) was 45.7 µM and the TGI (BT-549 breast) was 28.4 µM. For the same compound, the TGI (SNB-19 CNS) was 55.9 µM and the TGI (UACC-257 melanoma) was 17.4 µM.
In the case of CO/C=C(/C(=O)OC)c1ccccc1COc1cccc(C(F)(F)F)c1, the TGI (SR leukemia) is reported as greater than 100 µM, the TGI (MALME-3M melanoma) is reported as 29.4 µM and the TGI (COLO 205 colon) is reported as 28.5 µM. The TGI (RPMI-8226 leukemia) was 7.31 µM, the TGI (HS 578T breast) was greater than 100 µM and the TGI (MDA-MB-435) was 23.1 µM. For the same compound, the TGI (HT29 colon) was greater than 100 µM, the TGI (SK-MEL-28 melanoma) was greater than 100 µM and the TGI (SK-MEL-2 melanoma) was 34.2 µM. For the same compound, the TGI (HCC-2998 colon) was greater than 100 µM, the TGI (M14 melanoma) was greater than 100 µM and the TGI (NCI-H522 lung) was 5.86 µM. For the same compound, the TGI (T-47D breast) was 91.4 µM, the TGI (DU-145 prostate) was greater than 100 µM and the TGI (NCI/ADR-RES ovarian) was greater than 100 µM. The TGI (MCF7 breast) was greater than 100 µM, the TGI (OVCAR-8 ovarian) was greater than 100 µM and the TGI (RXF 393 renal) was 78.3 µM. For the same compound, the TGI (IGROV1 ovarian) was 47.3 µM, the TGI (OVCAR-5 ovarian) was greater than 100 µM and the TGI (K-562 leukemia) was greater than 100 µM. It also gave a TGI (CCRF-CEM leukemia) of 27.3 µM, a TGI (NCI-H460 lung) greater than 100 µM and a TGI (UACC-62 melanoma) of 42 µM. It also gave a TGI (SK-OV-3 ovarian) greater than 100 µM, a TGI (OVCAR-4 ovarian) greater than 100 µM and a TGI (NCI-H226 lung) of 71.2 µM. The TGI (OVCAR-3 ovarian) was 55 µM, the TGI (PC-3 prostate) was greater than 100 µM and the TGI (MDA-N) was greater than 100 µM. It also gave a TGI (MDA-MB-231 breast) of 68.8 µM, a TGI (SF-268 CNS) greater than 100 µM and a TGI (HCT-15 colon) greater than 100 µM. For the same compound, the TGI (HOP-92 NSCLC) was 50.5 µM, the TGI (UO-31 renal) was 77 µM and the TGI (SN12C renal) was greater than 100 µM. It also gave a TGI (SF-295 CNS) greater than 100 µM, a TGI (SNB-75 CNS) of 64.8 µM and a TGI (HOP-62 NSCLC) greater than 100 µM. The TGI (KM12 colon) was greater than 100 µM, the TGI (SF-539 CNS) was greater than 100 µM and the TGI (A498 renal) was 68.6 µM. The TGI (LOX IMVI melanoma) was 13.6 µM, the TGI (HCT-116 colon) was greater than 100 µM and the TGI (CAKI-1 renal) was 53.9 µM. It also gave a TGI (ACHN renal) greater than 100 µM, a TGI (EKVX NSCLC) greater than 100 µM and a TGI (HL-60(TB) leukemia) of 3.99 µM. The TGI (A549 NSCLC) was greater than 100 µM, the TGI (NCI-H23 lung) was greater than 100 µM and the TGI (786-0 renal) was greater than 100 µM. For the same compound, the TGI (MOLT-4 leukemia) was greater than 100 µM, the TGI (SK-MEL-5 melanoma) was 14.5 µM and the TGI (U251 CNS) was greater than 100 µM. The TGI (BT-549 breast) was greater than 100 µM, the TGI (SNB-19 CNS) was greater than 100 µM and the TGI (UACC-257 melanoma) was 21.3 µM.
